# Measurements from article PMC5944028, “Nonclinical and clinical pharmacological characterization of the potent and selective cathepsin K inhibitor MIV-711” (Journal of Translational Medicine, 2018).
# pIC50, pKi: −log10 of the molar value. Where two headings read alike, the source gives them in different places.
# Key:
# human cathepsin V = molecular target: T1, human cathepsin V (Homo sapiens, UniProt O60911); test: Enzyme assay, human cathepsin V; format: biochemical
# T1 construct: purchased R & D Systems
# T1 sequence (O60911 114-334): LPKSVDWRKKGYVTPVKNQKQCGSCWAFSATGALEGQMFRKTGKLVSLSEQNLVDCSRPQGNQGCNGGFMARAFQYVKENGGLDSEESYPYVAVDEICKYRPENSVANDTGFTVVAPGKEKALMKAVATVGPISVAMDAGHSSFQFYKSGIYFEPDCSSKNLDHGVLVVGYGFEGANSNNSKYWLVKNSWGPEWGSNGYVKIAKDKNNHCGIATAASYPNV
# Source text: (§1) Recombinant cathepsin K enzymes from all species were expressed in E. coli, purified and activated. Human cathepsin F and cathepsin S were expressed in Baculovirus, purified and activated. Purified human cathepsins B and H (Athens Research Technology), cathepsin L (Calbiochem), and cathepsin V (R & D Systems) were purchased.
# (§2) H-D-Ala_Leu-Lys-AMC was used as the substrate in assays of cathepsin K from non-rodent species (human, dog, rabbit and guinea pig), and Z-Leu-Arg-AMC was used as the substrate in assays of cathepsin K from rodent species (mouse and rat). […]
# (§3) Assays were carried out in white polystyrene 96-well plates in a final volume of 100 µL. […] Plates were read in a Fluoroskan Ascent (Thermo Labsystems, Helsinki, Finland) in kinetic mode, with excitation and emission filters of 390 and 460 nm, respectively. Rates were determined by linear regression of the fluorescence/time data in Excel. Rates were fitted by non-linear regression to either the competitive inhibition equation, with the substrate concentration fixed at the value in the assay and the KM fixed to the value previously determined, or the IC50 equation using GraphPad Prism (GraphPad, version 6, San Diego, USA) to obtain Ki or IC50 values, respectively.
# urinary CTX-II = settings: cited from earlier work
# [1] = Human safety and tolerability, single ascending dose study; format: in vivo, human healthy subjects
# Source text: Twenty-seven healthy male and female subjects (18 male and 9 female) of any ethnic origin (24 White, 1 Asian, 1 Black, 1 Black/Caribbean White), aged between 19 and 64 years, and with a body mass index (BMI) between 18.0 and 32.0 kg/m^2, were selected for this study. Inclusion criteria for enrollment followed the standard practice for first-in-man studies.
# This was a randomized, double-blind, placebo-controlled, sequential, single-ascending dose study conducted at a single site with the objective of evaluating the safety, tolerability, pharmacokinetics (PK) and pharmacodynamics of MIV-711. Subjects were randomized into 3 groups using a computer-generated pseudo-random permutation procedure. Each group consisted of 9 subjects with at least 3 subjects of each gender per group and subjects participated in 1–2 treatment periods. There was a minimum of 10 days between dose escalations and a minimum of 20 days between dosing occasions for individual subjects. For each subsequent dosing occasion, the decision to escalate the dose to the next level was taken after a thorough review of the safety, tolerability and PK data. In each treatment period, 7 subjects received MIV-711 and 2 received placebo (comprising of 1 subject of each gender). Dosing occurred on the morning of Day 1 following an overnight fast and subjects were kept in the fasted state until approximately 4.5 h after dosing. MIV-711 was given as a combination of 10 or 40 mg hard gelatin capsules, while placebo was given in similar capsules of identical appearance.
# Standard safety assessments were performed throughout the study and included physical examination, vital signs, 12-lead electrocardiogram (ECG), continuous ECG Holter monitoring, hematology, biochemistry, urinalysis and adverse event monitoring.
# In the nonclinical studies, two-way ANOVA was used to assess the effects of MIV-711 on plasma CTX-I. Pearson’s correlation was used when comparing plasma exposure of MIV-711 with inhibitory effects on CTX-I. Student’s unpaired t test was used when assessing the effect of MIV-711 on urine biomarkers. In the clinical study, PK parameters were summarized by dose level using descriptive statistics. The dose proportionality for AUC and Cmax was assessed by using a power model with determination of the linear regression slope with a 95% confidence interval. Change in CTX-I from baseline at 24 h after dose was calculated by dose level and summarized using descriptive statistics. In addition, the 95% confidence interval for the difference between each MIV-711 group and the placebo group for these variables was calculated by dose level. Pearson’s correlation was used when comparing plasma exposure of MIV-711 with inhibitory effects on CTX-I. A time-matched and placebo-corrected approach was used to evaluate the effects of MIV-711 on the QTcF interval from the Holter ECG recordings. The change-from-baseline QTcF at post-dose time points was analyzed using an ANCOVA model including the treatment, time (categorical), and treatment-by-time interaction as fixed effects, baseline QTcF as a covariate, and subject as random effect. A p value < 0.05 was considered statistically significant. Data are expressed as mean ± SEM.
# rabbit cathepsin K = molecular target: T2, rabbit cathepsin K (Oryctolagus cuniculus, UniProt P43236); test: Recombinant enzyme assay, rabbit cathepsin K; format: biochemical; settings: footnote a: IC50
# T2 construct: made in house; host or cells: E. coli
# T2 sequence (P43236 115-329): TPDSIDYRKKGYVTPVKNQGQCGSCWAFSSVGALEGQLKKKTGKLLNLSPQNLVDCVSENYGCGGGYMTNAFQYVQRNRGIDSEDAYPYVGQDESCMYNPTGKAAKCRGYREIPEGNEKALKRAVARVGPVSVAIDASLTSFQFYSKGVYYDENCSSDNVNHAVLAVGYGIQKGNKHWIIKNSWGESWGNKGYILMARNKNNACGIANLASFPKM
# Source text: as §1, §2, §3
# [2] = single ascending doses 20–600 mg
smiles,measurement,setting,value
C#C[C@@H]1CN(C(=O)[C@H](CC(C)C)NC(=O)c2ccc(-c3nc(N4CCN(C)CC4)sc3F)cc2)[C@@H]2C(=O)CO[C@H]12 [MIV-711],pKi,human cathepsin V,5.40
same,Reduction of urinary CTX-II,"urinary CTX-II; healthy subjects, 200 mg daily for 7 days",72%
same,Reduction of urinary CTX-II,"urinary CTX-II; postmenopausal women, 100 mg once daily for 1 month",55%
same,Adverse events considered possibly related to treatment,"[1]; 6/35, all mild",17%
same,Subjects reporting adverse events,[1]; 11/35 MIV-711-treated subjects,31%
same,Upper confidence interval of the projected QTcF effect at the highest observed plasma levels,[1]; maximum dose of 600 mg,below 10 ms
same,Safety and tolerability,[1]; [2],safe and well-tolerated
same,Serious adverse events,[1]; [2],no serious adverse events
same,pIC50,rabbit cathepsin K,8.48
